Laboratory results taken from patent publication US10820591B2, “Substituted sulfonyl amides for controlling animal pests” (Bayer Aktiengesellschaft, priority 2016, dated 2020).

Each compound was assayed on Meloidogyne incognita (assay: Meloidogyne incognita test (sand, lettuce, gall formation)). Conditions: Meloidogyne incognita, 336 h, 20 ppm, after 14 days; read-out: nematicidal efficacy (formation of galls).
Assay type: in vivo
Description: Meloidogyne incognita Test [table] To produce a suitable active compound preparation, 1 part by weight of active compound is mixed with the stated amount of solvent and the concentrate is diluted to the desired concentration with water. Vessels are filled with sand, active compound solution, an egg/larvae suspension of the southern root-knot nematode (Meloidogyne incognita) and lettuce seeds. The lettuce seeds germinate and the plants develop. The galls develop on the roots. After 14 days, the nematicidal efficacy in % is determined by the formation of galls. 100% means that no galls were found; 0% means that the number of galls on the treated plants corresponds to the untreated control.
O=C(NS(=O)(=O)c1ccc(Cl)cc1)c1cn(Cc2c(F)cccc2F)cn1 [I-001] gave a pest or weed control at 20 ppm of 90%. COc1ccc(Cl)c(S(=O)(=O)NC(=O)c2cn(Cc3c(F)cccc3F)cn2)c1 [I-002] gave a pest or weed control at 20 ppm of 90%. O=C(NS(=O)(=O)c1ccccc1Cl)c1cn(Cc2c(F)cccc2F)cn1 [I-003] was tested, and the pest or weed control at 20 ppm was 90%. Cc1nc(C(=O)NS(=O)(=O)C(C)C)cn1-c1c(F)cccc1F [I-005] gave a pest or weed control at 20 ppm of 100%. With O=C(NS(=O)(=O)c1ccccc1Cl)c1ncn(CCC(F)(F)F)c1I [I-008] the pest or weed control at 20 ppm was 100%. CC(C)S(=O)(=O)NC(=O)c1ncn(CCC(F)(F)F)c1Br [I-009] gave a pest or weed control at 20 ppm of 90%. With O=C(NS(=O)(=O)c1ccccc1Cl)c1ncn(CCC(F)(F)F)c1Br [I-011] the pest or weed control at 20 ppm was 70%. In the case of O=C(NS(=O)(=O)c1ccc(Cl)cc1)c1ncn(CCC(F)(F)F)c1Cl [I-012], the pest or weed control at 20 ppm was 100%. Compound O=C(NS(=O)(=O)c1ccc(Cl)cc1Cl)c1ncn(CC(F)(F)F)c1Cl [I-013] has a pest or weed control at 20 ppm of 70%. In the case of O=C(NS(=O)(=O)c1ccc(Cl)cc1Cl)c1cn(CC(F)(F)F)cn1 [I-014], the pest or weed control at 20 ppm was 90%. For O=C(NS(=O)(=O)c1cc(Cl)ccc1Cl)c1ncn(CCC(F)(F)F)c1Cl [I-015], the pest or weed control at 20 ppm was 90%. In the case of O=C(NS(=O)(=O)c1c(Cl)cccc1Cl)c1ncn(CC(F)(F)F)c1Cl [I-016], the pest or weed control at 20 ppm was 90%. Compound Cc1ccccc1S(=O)(=O)NC(=O)c1cn(CCC(F)(F)F)cn1 [I-017] has a pest or weed control at 20 ppm of 90%. In the case of O=C(NS(=O)(=O)c1cccc(C(F)(F)F)c1)c1ncn(CCC(F)(F)F)c1Cl [I-018], the pest or weed control at 20 ppm was 90%. O=C(NS(=O)(=O)c1cccc(C(F)(F)F)c1)c1cn(CC(F)(F)F)cn1 [I-019] gave a pest or weed control at 20 ppm of 90%. In the case of O=C(NS(=O)(=O)c1cccc(Cl)c1)c1ncn(CCC(F)(F)F)c1Cl [I-020], the pest or weed control at 20 ppm was 90%. Work on O=C(NS(=O)(=O)c1ccc(C(F)(F)F)cc1)c1ncn(CCC(F)(F)F)c1Cl [I-021] yielded a pest or weed control at 20 ppm of 90%. Cc1ccc(S(=O)(=O)NC(=O)c2cn(CCC(F)(F)F)cn2)cc1 [I-022] gave a pest or weed control at 20 ppm of 90%. Compound Cc1ccc(S(=O)(=O)NC(=O)c2ncn(CC(F)(F)F)c2Cl)cc1 [I-023] has a pest or weed control at 20 ppm of 90%. With Cc1ccc(S(=O)(=O)NC(=O)c2cn(CC(F)(F)F)cn2)cc1 [I-024] the pest or weed control at 20 ppm was 90%. With O=C(NS(=O)(=O)c1ccc(Cl)cc1)c1cn(CC(F)(F)F)cn1 [I-025] the pest or weed control at 20 ppm was 90%. COc1ccc(S(=O)(=O)NC(=O)c2cn(CCC(F)(F)F)cn2)cc1 [I-026] was tested, and the pest or weed control at 20 ppm was 90%. Work on COc1ccc(S(=O)(=O)NC(=O)c2cn(CC(F)(F)F)cn2)cc1 [I-027] yielded a pest or weed control at 20 ppm of 90%. Compound O=C(NS(=O)(=O)Cc1ccccc1)c1ncn(CC(F)(F)F)c1Cl [I-029] has a pest or weed control at 20 ppm of 70%. In the case of O=C(NS(=O)(=O)c1ccc2c(c1Cl)OC(F)(F)O2)c1ncn(CCC(F)(F)F)c1Cl [I-030], the pest or weed control at 20 ppm was 90%. Compound CC(=O)Oc1ccc(S(=O)(=O)NC(=O)c2ncn(CCC(F)(F)F)c2Cl)cc1 [I-031] has a pest or weed control at 20 ppm of 90%. O=C(NS(=O)(=O)c1ccc(OC(F)(F)F)cc1)c1ncn(CCC(F)(F)F)c1Cl [I-033] was tested, and the pest or weed control at 20 ppm was 90%. CC(C)Oc1ccc(S(=O)(=O)NC(=O)c2ncn(CCC(F)(F)F)c2Cl)cc1 [I-034] was tested, and the pest or weed control at 20 ppm was 90%. For COc1cc(C)c(S(=O)(=O)NC(=O)c2ncn(CCC(F)(F)F)c2Cl)c(C)c1 [I-036], the pest or weed control at 20 ppm was 100%. CCCn1cnc(C(=O)NS(=O)(=O)c2ccccc2)c1Cl [I-038] gave a pest or weed control at 20 ppm of 90%. CCCn1cnc(C(=O)NS(=O)(=O)c2ccc(OC)cc2)c1Cl [I-039] gave a pest or weed control at 20 ppm of 100%. For CCCn1cnc(C(=O)NS(=O)(=O)c2ccccc2Cl)c1Cl [I-040], the pest or weed control at 20 ppm was 70%. For CCCn1cnc(C(=O)NS(=O)(=O)c2cccc(Cl)c2)c1Cl [I-041], the pest or weed control at 20 ppm was 100%. Work on CCCn1cnc(C(=O)NS(=O)(=O)c2cccc(OC)c2)c1Cl [I-043] yielded a pest or weed control at 20 ppm of 100%. CC(C)CCn1cnc(C(=O)NS(=O)(=O)c2ccccc2)c1Cl [I-044] showed a pest or weed control at 20 ppm of 100%. Compound COc1ccc(S(=O)(=O)NC(=O)c2ncn(CCC(C)C)c2Cl)cc1 [I-045] has a pest or weed control at 20 ppm of 100%. For CC(C)CCn1cnc(C(=O)NS(=O)(=O)c2ccc(Cl)cc2)c1Cl [I-046], the pest or weed control at 20 ppm was 100%. With COc1cccc(S(=O)(=O)NC(=O)c2ncn(CCC(C)C)c2Cl)c1 [I-047] the pest or weed control at 20 ppm was 100%. COc1ccccc1S(=O)(=O)NC(=O)c1ncn(CCC(C)C)c1Cl [I-048] showed a pest or weed control at 20 ppm of 90%. With O=C(NS(=O)(=O)c1ccccc1)c1ncn(CCCCl)c1Cl [I-049] the pest or weed control at 20 ppm was 90%. COc1ccc(S(=O)(=O)NC(=O)c2ncn(CCCCl)c2Cl)cc1 [I-050] gave a pest or weed control at 20 ppm of 90%. Compound O=C(NS(=O)(=O)c1cccc(Cl)c1)c1ncn(CCCCl)c1Cl [I-051] has a pest or weed control at 20 ppm of 90%. Compound O=C(NS(=O)(=O)c1ccc(Cl)cc1)c1ncn(CCCCl)c1Cl [I-052] has a pest or weed control at 20 ppm of 90%. In the case of COc1cccc(S(=O)(=O)NC(=O)c2ncn(CCCCl)c2Cl)c1 [I-053], the pest or weed control at 20 ppm was 90%. For O=C(NS(=O)(=O)c1ccccc1)c1ncn(CCOC(F)(F)F)c1Cl [I-054], the pest or weed control at 20 ppm was 90%. COc1ccc(S(=O)(=O)NC(=O)c2ncn(CCOC(F)(F)F)c2Cl)cc1 [I-055] showed a pest or weed control at 20 ppm of 90%. In the case of O=C(NS(=O)(=O)c1cccc(Cl)c1)c1ncn(CCOC(F)(F)F)c1Cl [I-056], the pest or weed control at 20 ppm was 90%. Compound O=C(NS(=O)(=O)c1ccc(Cl)cc1)c1ncn(CCOC(F)(F)F)c1Cl [I-057] has a pest or weed control at 20 ppm of 100%. COc1cccc(S(=O)(=O)NC(=O)c2ncn(CCOC(F)(F)F)c2Cl)c1 [I-058] showed a pest or weed control at 20 ppm of 70%. O=C(NS(=O)(=O)c1cccc(Cl)c1)c1ncn(C2CC2C(F)(F)F)c1Cl (stereo not shown) [I-061] showed a pest or weed control at 20 ppm of 90%. For O=C(NS(=O)(=O)c1ccc(Cl)cc1)c1ncn(C2CC2C(F)(F)F)c1Cl (stereo not shown) [I-062], the pest or weed control at 20 ppm was 90%. For COc1cccc(S(=O)(=O)NC(=O)c2ncn(C3CC3C(F)(F)F)c2Cl)c1 (stereo not shown) [I-063], the pest or weed control at 20 ppm was 100%. Work on COc1ccccc1S(=O)(=O)NC(=O)c1ncn(C2CC2C(F)(F)F)c1Cl (stereo not shown) [I-064] yielded a pest or weed control at 20 ppm of 100%. O=C(NS(=O)(=O)c1cccc(Cl)c1)c1ncn(C2CCCC2C(F)(F)F)c1Cl (stereo not shown) [I-065] showed a pest or weed control at 20 ppm of 90%. With O=C(NS(=O)(=O)c1ccc(Cl)cc1)c1ncn(C2CCCC2C(F)(F)F)c1Cl (stereo not shown) [I-066] the pest or weed control at 20 ppm was 90%. With COc1cccc(S(=O)(=O)NC(=O)c2ncn(C3CCCC3C(F)(F)F)c2Cl)c1 (stereo not shown) [I-067] the pest or weed control at 20 ppm was 70%. With COc1ccccc1S(=O)(=O)NC(=O)c1ncn(C2CCCC2C(F)(F)F)c1Cl (stereo not shown) [I-068] the pest or weed control at 20 ppm was 90%. With CC(CC(F)(F)F)n1cnc(C(=O)NS(=O)(=O)c2ccccc2)c1Cl (stereo not shown) [I-069] the pest or weed control at 20 ppm was 100%. Compound CC(CC(F)(F)F)n1cnc(C(=O)NS(=O)(=O)c2ccccc2Cl)c1Cl (stereo not shown) [I-071] has a pest or weed control at 20 ppm of 100%. Compound CC(CC(F)(F)F)n1cnc(C(=O)NS(=O)(=O)c2cccc(Cl)c2)c1Cl (stereo not shown) [I-072] has a pest or weed control at 20 ppm of 100%. For COc1cccc(S(=O)(=O)NC(=O)c2ncn(C(C)CC(F)(F)F)c2Cl)c1 (stereo not shown) [I-074], the pest or weed control at 20 ppm was 100%. In the case of COc1ccccc1S(=O)(=O)NC(=O)c1ncn(C(C)CC(F)(F)F)c1Cl (stereo not shown) [I-075], the pest or weed control at 20 ppm was 70%. Work on COc1ccc(S(=O)(=O)NC(=O)c2ncn(CC(F)(F)C(F)(F)F)c2Cl)cc1 [I-076] yielded a pest or weed control at 20 ppm of 90%. In the case of O=C(NS(=O)(=O)c1ccccc1)c1ncn(CC(F)(F)C(F)(F)F)c1Cl [I-077], the pest or weed control at 20 ppm was 100%. O=C(NS(=O)(=O)c1ccc(Cl)cc1)c1ncn(CC(F)(F)C(F)(F)F)c1Cl [I-078] gave a pest or weed control at 20 ppm of 100%. With O=C(NS(=O)(=O)c1cccc(Cl)c1)c1ncn(CC(F)(F)C(F)(F)F)c1Cl [I-079] the pest or weed control at 20 ppm was 100%. For O=C(NS(=O)(=O)c1ccccc1Cl)c1ncn(CC(F)(F)C(F)(F)F)c1Cl [I-080], the pest or weed control at 20 ppm was 90%. COc1ccccc1S(=O)(=O)NC(=O)c1ncn(CC(F)(F)C(F)(F)F)c1Cl [I-081] was tested, and the pest or weed control at 20 ppm was 90%. Compound COc1cccc(S(=O)(=O)NC(=O)c2ncn(CC(F)(F)C(F)(F)F)c2Cl)c1 [I-082] has a pest or weed control at 20 ppm of 100%. Work on O=C(NS(=O)(=O)Cc1ccc(Cl)cc1)c1ncn(CCC(F)(F)F)c1Cl [I-084] yielded a pest or weed control at 20 ppm of 100%. O=C(NS(=O)(=O)c1cc(Cl)c(Cl)s1)c1ncn(CCC(F)(F)F)c1Cl [I-086] gave a pest or weed control at 20 ppm of 70%. For COc1cc(OC)cc(S(=O)(=O)NC(=O)c2ncn(CCC(F)(F)F)c2Cl)c1 [I-087], the pest or weed control at 20 ppm was 70%. With CCOc1ccc(S(=O)(=O)NC(=O)c2ncn(CCC(F)(F)F)c2Cl)cc1 [I-088] the pest or weed control at 20 ppm was 90%. CSc1ccc(S(=O)(=O)NC(=O)c2ncn(CCC(F)(F)F)c2Cl)cc1 [I-089] gave a pest or weed control at 20 ppm of 100%. Compound CCCCOc1ccc(S(=O)(=O)NC(=O)c2ncn(CCC(F)(F)F)c2Cl)cc1 [I-090] has a pest or weed control at 20 ppm of 90%. Compound CC(=O)Nc1ccc(S(=O)(=O)NC(=O)c2ncn(CCC(F)(F)F)c2Cl)cc1 [I-091] has a pest or weed control at 20 ppm of 90%. Compound Cc1ccc(CS(=O)(=O)NC(=O)c2ncn(CCC(F)(F)F)c2Cl)cc1 [I-092] has a pest or weed control at 20 ppm of 70%. With Cc1ccccc1CS(=O)(=O)NC(=O)c1ncn(CCC(F)(F)F)c1Cl [I-093] the pest or weed control at 20 ppm was 100%. Work on O=C(NS(=O)(=O)c1ccc(Cl)s1)c1ncn(CCC(F)(F)F)c1Cl [I-094] yielded a pest or weed control at 20 ppm of 90%. With Cc1noc(C)c1S(=O)(=O)NC(=O)c1ncn(CCC(F)(F)F)c1Cl [I-095] the pest or weed control at 20 ppm was 90%. Compound COc1cc(OC)nc(Oc2ccc(S(=O)(=O)NC(=O)c3ncn(CCC(F)(F)F)c3Cl)cc2)n1 [I-096] has a pest or weed control at 20 ppm of 90%. In the case of O=C(NS(=O)(=O)c1cccs1)c1ncn(CCC(F)(F)F)c1Cl [I-097], the pest or weed control at 20 ppm was 90%.
